Patent US8431704B2, “Quinoline or isoquinoline substituted P2X7 antagonists” (Janssen Pharmaceutica NV, priority 2008, dated 2013)

target: T1, P2X7 (Homo sapiens, UniProt Q99572); assay: THP-1 YoPro uptake assay (BzATP-stimulated Yo-Pro-1 uptake); assay type: cell-based; settings: Table F-10, THP-1 cells, read-out: mean pIC50 values for P2X7 antagonism (converted)
T1 construct: endogenous in cells; host or cells: THP-1 human monocytic cell line
T1 sequence (Q99572 1-595): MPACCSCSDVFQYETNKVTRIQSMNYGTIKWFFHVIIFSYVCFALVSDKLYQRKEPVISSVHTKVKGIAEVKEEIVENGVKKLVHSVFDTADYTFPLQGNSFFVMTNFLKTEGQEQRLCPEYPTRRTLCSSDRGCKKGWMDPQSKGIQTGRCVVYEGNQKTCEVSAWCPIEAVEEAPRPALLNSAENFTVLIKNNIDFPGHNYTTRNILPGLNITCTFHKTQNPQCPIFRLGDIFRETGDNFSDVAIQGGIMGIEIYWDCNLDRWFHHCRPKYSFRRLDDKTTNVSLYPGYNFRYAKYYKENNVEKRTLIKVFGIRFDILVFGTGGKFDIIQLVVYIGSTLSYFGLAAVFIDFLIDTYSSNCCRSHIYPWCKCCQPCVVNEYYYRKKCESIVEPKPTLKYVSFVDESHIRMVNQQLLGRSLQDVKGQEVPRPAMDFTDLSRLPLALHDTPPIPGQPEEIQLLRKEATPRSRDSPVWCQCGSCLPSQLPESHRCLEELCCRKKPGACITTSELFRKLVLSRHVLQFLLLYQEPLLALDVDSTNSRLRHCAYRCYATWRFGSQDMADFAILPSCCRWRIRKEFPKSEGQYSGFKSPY
Procedure: The human monocytic cell line THP-1 was grown as a suspension culture in RPMI medium supplemented with 10% fetal bovine serum, penicillin/streptomycin (50 units/mL), 2 mM L-glutamine, and 20 μM 2-mercaptoethanol. Cells were maintained at a density below 0.5 million per mL. On the day of the assay, cells were washed twice with assay buffer, and then resuspended at 2 million per mL in assay buffer containing 2 μM Yo-Pro-1 (Invitrogen). The assay buffer contained (in mM): 280 sucrose, 5 KCl, 10 glucose, 10 HEPES, 5 N-methyl-D-glucamine. The cells were added at 200 k/well into poly-D-lysine-coated black-walled 96-well plates (Biocoat, Becton-Dickinson). Test compounds were dissolved in DMSO, and then added at the test concentration to each well of the 96-well plate. Concentration dependence of block was determined by exposing each well of cells in duplicate rows of a 96-well plate to a serial dilution of test compound. The concentration series usually started at 10 μM with a three-fold decrement in concentration. The final DMSO concentration seen by the cells was less than 0.5%. Cells were incubated with test compounds for 30 minutes at 37° C. A background reading was taken using a Gemini SpectraMax with 490 nm excitation and 530 nm emission. […] After incubation for 60 minutes at 37° C., an endpoint read was taken in the SpectraMax plate reader. The amount of block of the response was determined by comparing the fluorescence intensity in each well to the average of control wells on each plate. The control wells contained either a known antagonist of P2X7 (positive controls) or a concentration of DMSO equal to that in the test wells. Data were analyzed using a nonlinear regression program (Origin, OriginLab, MA). Results are reported as the −log of the IC50 (pIC50).

Row | SMILES | IC50 [nM]
1 | O=C(NCC(c1cnc(C(F)(F)F)nc1)N1CCOCC1)c1c(Cl)ccc2nc(N3CCNCC3)ccc12 (stereo not drawn) [Compound 504] | 6.92
2 | CN1CCN(c2ccc3c(C(=O)NCC(c4cnc(C(F)(F)F)nc4)N4CCOCC4)c(Cl)ccc3n2)CC1 (stereo not drawn) [Compound 505] | 5.13
3 | O=C(NCC(c1cnc(C(F)(F)F)nc1)N1CCC(F)(F)CC1)c1c(Cl)ccc2nc(NCC3CC3)ccc12 (stereo not drawn) [Compound 507] | 13.5
4 | O=C(NCC(c1cnc(C(F)(F)F)nc1)N1CCC(F)(F)CC1)c1c(Cl)ccc2nc(N3CC(O)(C(F)(F)F)C3)ccc12 (stereo not drawn) [Compound 509] | 17.8
5 | O=C(NCC(c1cnc(C(F)(F)F)nc1)N1CCC(F)(F)CC1)c1c(Cl)ccc2nc(N3CC(CO)C3)ccc12 (stereo not drawn) [Compound 510] | 3.47
6 | CN(CCN)c1ccc2c(C(=O)NCC(c3cnc(C(F)(F)F)nc3)N3CCC(F)(F)CC3)c(Cl)ccc2n1 (stereo not drawn) [Compound 511] | 4.79
7 | O=C(NCC(c1cnc(C(F)(F)F)nc1)N1CCC(F)(F)CC1)c1c(Cl)ccc2nc(N3CCC(c4n[nH]c(=O)[nH]4)CC3)ccc12 (stereo not drawn) [Compound 515] | 5.62
8 | CNCCN(C)c1ccc2c(C(=O)NCC(c3cnc(C(F)(F)F)nc3)N3CCC(F)(F)CC3)c(Cl)ccc2n1 (stereo not drawn) [Compound 517] | 8.51
9 | O=C(NCC(c1cnc(C(F)(F)F)nc1)N1CCOCC1)c1c(Cl)ccc2nc(N3CCC4(CCCCN4)C3)ccc12 (stereo not drawn) [Compound 520] | 9.55
10 | NCC1CCN(c2ccc3c(C(=O)NCC(c4cnc(C(F)(F)F)nc4)N4CCOCC4)c(Cl)ccc3n2)CC1 (stereo not drawn) [Compound 521] | 13.8
11 | O=C(NCC(c1cnc(C(F)(F)F)nc1)N1CCOCC1)c1c(Cl)ccc2nc(N3CC4COCC4C3)ccc12 (stereo not drawn) [Compound 525] | 52.5
12 | O=C(NCC(c1cnc(C(F)(F)F)nc1)N1CCOCC1)c1c(Cl)ccc2nc(N3C[C@@H]4C[C@H]3CO4)ccc12 (stereo partly drawn) [Compound 526] | 56.2
13 | NCC1CCN(c2ccc3c(C(=O)NCC(c4cnc(C(F)(F)F)nc4)N4CCC(F)(F)CC4)c(Cl)ccc3n2)CC1 (stereo not drawn) [Compound 528] | 4.57
14 | O=C(NCC(c1cnc(C(F)(F)F)nc1)N1CCCCC1)c1c(Cl)ccc2nc(NCCO)ccc12 (stereo not drawn) [Compound 547] | 3.47
15 | O=C(NCC(c1cnc(C(F)(F)F)nc1)N1CCCCC1)c1c(Cl)ccc2nc(N3CCNCC3)ccc12 (stereo not drawn) [Compound 549] | 3.39
16 | O=C(NCC(c1cnc(C(F)(F)F)nc1)N1CCCCC1)c1c(Cl)ccc2nc(NCC(O)CO)ccc12 (stereo not drawn) [Compound 550] | 2.34
17 | CS(=O)(=O)NCCNc1ccc2c(C(=O)NCC(c3cnc(C(F)(F)F)nc3)N3CCOCC3)c(Cl)ccc2n1 (stereo not drawn) [Compound 553] | 17.4
18 | O=C(NCC(c1cnc(C(F)(F)F)nc1)N1CCOCC1)c1c(Cl)ccc2nc(NC3CCOCC3)ccc12 (stereo not drawn) [Compound 554] | 12.6
19 | CC(=O)NC1CC2CCC(C1)N2c1ccc2c(C(=O)NCC(c3cnc(C(F)(F)F)nc3)N3CCOCC3)c(Cl)ccc2n1 (stereo not drawn) [Compound 555] | 16.2
20 | NCCNc1ccc2c(C(=O)NCC(c3cnc(C(F)(F)F)nc3)N3CCOCC3)c(Cl)ccc2n1 (stereo not drawn) [Compound 557] | 1.12
21 | O=C(NCC(c1cnc(C(F)(F)F)nc1)N1CCOCC1)c1c(Cl)ccc2nc(N3CC4CNCC4C3)ccc12 (stereo not drawn) [Compound 558] | 2.51
22 | N[C@@H]1CCN(c2ccc3c(C(=O)NCC(c4cnc(C(F)(F)F)nc4)N4CCOCC4)c(Cl)ccc3n2)C1 (stereo partly drawn) [Compound 561] | 1.35

The next lines start with the values.

Row | IC50 [nM] | SMILES
23 | 13.8 | O=C(NCC(c1cnc(C(F)(F)F)nc1)N1CCOCC1)c1c(Cl)ccc2nc(N3CCOCC3)ccc12 (stereo not drawn) [Compound 502]
24 | 37.2 | C[C@@H]1CN(c2ccc3c(C(=O)NCC(c4cnc(C(F)(F)F)nc4)N4CCOCC4)c(Cl)ccc3n2)C[C@H](C)O1 (stereo partly drawn) [Compound 503]
25 | 18.2 | O=C(NCC(c1cnc(C(F)(F)F)nc1)N1CCOCC1)c1c(Cl)ccc2nc(N3CC[C@H](O)C3)ccc12 (stereo partly drawn) [Compound 506]
26 | 25.7 | O=C(NCC(c1cnc(C(F)(F)F)nc1)N1CCC(F)(F)CC1)c1c(Cl)ccc2nc(NCC(O)CO)ccc12 (stereo not drawn) [Compound 508]
27 | 5.37 | NC1CN(c2ccc3c(C(=O)NCC(c4cnc(C(F)(F)F)nc4)N4CCOCC4)c(Cl)ccc3n2)C1 (stereo not drawn) [Compound 512]
28 | 5.13 | O=C(NCC(c1cnc(C(F)(F)F)nc1)N1CCC(F)(F)CC1)c1c(Cl)ccc2nc(NCCN3CCOCC3)ccc12 (stereo not drawn) [Compound 513]
29 | 7.59 | O=C(NCC(c1cnc(C(F)(F)F)nc1)N1CCOCC1)c1c(Cl)ccc2nc(NCCNCCO)ccc12 (stereo not drawn) [Compound 514]
30 | 9.77 | CC1(O)CCN(c2ccc3c(C(=O)NCC(c4cnc(C(F)(F)F)nc4)N4CCOCC4)c(Cl)ccc3n2)CC1 (stereo not drawn) [Compound 516]
31 | 10.2 | O=C(NCC(c1cnc(C(F)(F)F)nc1)N1CCC(F)(F)CC1)c1c(Cl)ccc2nc(N3CCC(n4cn[nH]c4=O)CC3)ccc12 (stereo not drawn) [Compound 518]
32 | 7.08 | O=C(NCC(c1cnc(C(F)(F)F)nc1)N1CCOCC1)c1c(Cl)ccc2nc(N3CCC4(CCCN4)C3)ccc12 (stereo not drawn) [Compound 519]
33 | 24.5 | CNC1CN(c2ccc3c(C(=O)NCC(c4cnc(C(F)(F)F)nc4)N4CCOCC4)c(Cl)ccc3n2)C1 (stereo not drawn) [Compound 522]
34 | 15.8 | CN(CCN)c1ccc2c(C(=O)NCC(c3cnc(C(F)(F)F)nc3)N3CCOCC3)c(Cl)ccc2n1 (stereo not drawn) [Compound 523]
35 | 30.2 | O=C(NCC(c1cnc(C(F)(F)F)nc1)N1CCOCC1)c1c(Cl)ccc2nc(N3CC4(CNC4)C3)ccc12 (stereo not drawn) [Compound 524]
36 | 77.6 | O=C(NCC(c1cnc(C(F)(F)F)nc1)N1CCOCC1)c1c(Cl)ccc2nc(NCC3CCOCC3)ccc12 (stereo not drawn) [Compound 527]
37 | 5.62 | O=C(NCC(c1cnc(C(F)(F)F)nc1)N1CCC(F)(F)CC1)c1c(Cl)ccc2nc(N3CCC4(CCCCN4)C3)ccc12 (stereo not drawn) [Compound 529]
38 | 2.63 | O=C(NCC(c1cnc(C(F)(F)F)nc1)N1CCC(F)(F)CC1)c1c(Cl)ccc2nc(N3C[C@@H]4C[C@H]3CO4)ccc12 (stereo partly drawn) [Compound 530]
39 | 3.02 | O=C(NCC(c1cnc(C(F)(F)F)nc1)N1CCC(F)(F)CC1)c1c(Cl)ccc2nc(N3CCC4(CCCN4)C3)ccc12 (stereo not drawn) [Compound 531]
40 | 1.45 | NCCNc1ccc2c(C(=O)NCC(c3cnc(C(F)(F)F)nc3)N3CCCCC3)c(Cl)ccc2n1 (stereo not drawn) [Compound 545]
41 | 4.79 | O=C(NCC(c1cnc(C(F)(F)F)nc1)N1CCCCC1)c1c(Cl)ccc2nc(N3CCC(O)CC3)ccc12 (stereo not drawn) [Compound 546]
42 | 1.91 | O=C(NCC(c1cnc(C(F)(F)F)nc1)N1CCCCC1)c1c(Cl)ccc2nc(N3CCOCC3)ccc12 (stereo not drawn) [Compound 548]
43 | 14.8 | CS(=O)(=O)N[C@H]1CCN(c2ccc3c(C(=O)NCC(c4cnc(C(F)(F)F)nc4)N4CCOCC4)c(Cl)ccc3n2)C1 (stereo partly drawn) [Compound 551]
44 | 17.8 | CS(=O)(=O)N[C@@H]1CCN(c2ccc3c(C(=O)NCC(c4cnc(C(F)(F)F)nc4)N4CCOCC4)c(Cl)ccc3n2)C1 (stereo partly drawn) [Compound 552]
45 | 1.15 | CN[C@H]1CCN(c2ccc3c(C(=O)NCC(c4cnc(C(F)(F)F)nc4)N4CCOCC4)c(Cl)ccc3n2)C1 (stereo partly drawn) [Compound 556]
46 | 3.63 | O=C(NCC(c1cnc(C(F)(F)F)nc1)N1CCOCC1)c1c(Cl)ccc2nc(N3CCC4CNCC43)ccc12 (stereo not drawn) [Compound 559]
47 | 4.9 | O=C(NCC(c1cnc(C(F)(F)F)nc1)N1CCOCC1)c1c(Cl)ccc2nc(N3CC4CCNC4C3)ccc12 (stereo not drawn) [Compound 560]
48 | 4.9 | CN[C@@H]1CCN(c2ccc3c(C(=O)NCC(c4cnc(C(F)(F)F)nc4)N4CCOCC4)c(Cl)ccc3n2)C1 (stereo partly drawn) [Compound 562]
49 | 0.851 | N[C@H]1CCN(c2ccc3c(C(=O)NCC(c4cnc(C(F)(F)F)nc4)N4CCOCC4)c(Cl)ccc3n2)C1 (stereo partly drawn) [Compound 563]
50 | 7.41 | O=C(NCC(c1cnc(C(F)(F)F)nc1)N1CCOCC1)c1c(Cl)ccc2nc(N3C[C@@H]4CCCN[C@@H]4C3)ccc12 (stereo partly drawn) [Compound 564]
51 | 2.57 | O=C(NCC(c1cnc(C(F)(F)F)nc1)N1CCOCC1)c1c(Cl)ccc2nc(N3CC4CNC4C3)ccc12 (stereo not drawn) [Compound 565]
